Measured values taken from patent US11633551B2, “Gaseous nitric oxide delivery system and methods of use” (Hansen Pharmaceutical, LLC, priority 2014, dated 2023).
“And” between values parts separate entries of the source, which are not always exact repeats. Equal values may be shown once.

Assays:
Format in all cases: cell-based
[1] = test system: MRSA, methicillin-resistant strain of Staphylococcus aureus (ATCC #33591); test: Skin sample infection assay, 3 hours infection, bioburden after gNO; details: 1% gNO at 1 ATM (14.695 psi) for 90 minutes, flow rate 0.1 liters/minute; skin samples infected for 3 hours; FIG. 4
Procedure: (§1) FIG. 4 is a graph illustrating the effects of NO treatment on bioburden using an infection assay, after three hours of infection, according to an embodiment of the present disclosure. Skin samples infected for 3 hours with Staphylococcus, MRSA, Acinetobacter or Pseudomonas and subsequently exposed to 1% gNO at 1 ATM (14.695 psi) for 90 minutes at a flow rate of 0.1 liters/minute. Staphylococcus aureus, subspecies aureus Rosenbach (ATCC #12600); Staphylococcus aureus, subspecies aureus Rosenbach (ATCC #33591), methicillin-resistant strain of Staphylococcus aureus, phage type 92; Acinetobacter baumannii (ATCC #BAA-747); and Pseudomonas aeruginosa (ATTC #BAA-47). Control=infected, untreated tissue. Three sets of triplicates were performed per experiment.

[2] = test system: Staphylococcus aureus, subspecies aureus Rosenbach (ATCC #12600); test: as above; details: 1% gNO at 1 ATM (14.695 psi) for 90 minutes, flow rate 0.1 liters/minute; skin samples infected for 3 hours; FIG. 4
Procedure: as §1

[3] = test system: Acinetobacter baumannii (ATCC #BAA-747); test: as above; details: 1% gNO at 1 ATM (14.695 psi) for 90 minutes, flow rate 0.1 liters/minute; skin samples infected for 3 hours; FIG. 4
Procedure: as §1

[4] = test system: Pseudomonas aeruginosa (ATTC #BAA-47); test: as above; details: 1% gNO at 1 ATM (14.695 psi) for 90 minutes, flow rate 0.1 liters/minute; skin samples infected for 3 hours; FIG. 4
Procedure: as §1

S. aureus = test: Colony counts after pressurized gNO, 24 hours infection, Franz cell (3-Ring) or Leg Device; details: 1% gNO after 24 hours of infection
Procedure: Experiments were also conducted to determine the infection-reducing capability of gNO administration at various pressures below 1.0 ATM (14.695 psi) (independent of and in addition to the pressure applied by the external environment) using both a Franz cell tissue culture device (i.e., 3-Ring) and a portable gNO deliver device (i.e., Leg Device). The results of one set of experiments are illustrated below in Table 1. gNO was administered at a 1% concentration after 24 hours of infection with S. aureus. Flow Rates (cm^3/min or cc) varied from about 100 to about 1500, Purge Flow (liters/min or LPM) varied from about 0.1 to about 1.5, and gNO Exposure Time varied between about 45 minutes to about 105 minutes among the different treatment groups and controls. Colony counts (log CFU) were performed at various dilutions, which are represented in the last eight columns labeled 0, 1×10^−1 through 1×10^−7 (“0” indicates no dilution).

cells = test: MTT assay of cell viability after gNO administration; details: pressurized gNO at about 0.15 ATM (2.2 psi) for about 105 minutes
Procedure: Additionally, MTT assays were performed to assess cell viability after gNO administration. MTT assays are colorimetric-based assays used to assess cell viability as a function of color variation. As illustrated below in Table 2, cell viability after the administration of pressurized gNO at about 0.15 ATM (2.2 psi) for about 105 minutes varied from about 40%-50%.

[5] = Trial 0.15 ATM, 3-Ring, purge flow 0.1 LPM, flow rate 100 cc, 0.15 ATM, 105 min
[6] = Trial 0.25 ATM, 3-Ring, purge flow 0.1 LPM, flow rate 100 cc, 0.25 ATM, 90 min
[7] = Trial 0.5 ATM, 3-Ring, purge flow 0.1 LPM, flow rate 100 cc, 0.5 ATM, 90 min
[8] = Trial 0.5 ATM, Leg Device, purge flow 1.0 LPM, flow rate 500 cc, 0.5 ATM, 45 min
[9] = Trial 9 attempt, 3-Ring, purge flow 0.1 LPM, flow rate 100 cc, 0.25 ATM, 90 min
[10] = Trial Calf, Leg Device, purge flow 0.1 LPM, flow rate 100 cc, 0.5 ATM, 90 min
[11] = Trial Heel, Leg Device, purge flow 0.1 LPM, flow rate 100 cc, 0.5 ATM, 90 min
[12] = Trial Leg 1, Leg Device, purge flow 1.5 LPM, flow rate 1500 cc, 1 ATM, 90 min
[13] = Trial Leg 2, Leg Device, purge flow 1.5 LPM, flow rate 100 cc, 0.5 ATM, 90 min
[14] = Trial Leg purge, Leg Device, purge flow 0.5 LPM, flow rate 100 cc, 0.25 ATM, 90 min
[15] = Trial Toe, Leg Device, purge flow 0.1 LPM, flow rate 100 cc, 0.5 ATM, 90 min
[16] = Trial d Pressure, Leg Device, purge flow 0.1 LPM, flow rate 100 cc, 0.5 ATM, 45 min

Compound: [N]=O [gNO, Nitric Oxide]
- Reduction of bioburden [1]: nearly completely eradicated
- Reduction of bioburden [2]: 5 fold
- Reduction of bioburden [3]: nearly completely eradicated
- Reduction of bioburden [4]: nearly completely eradicated
- Colony counts, 1 × 10−5 dilution (S. aureus; [5]): 0 log CFU
- Colony counts, 1 × 10−6 dilution (S. aureus; [5]): 0 log CFU
- Colony counts, 1 × 10−7 dilution (S. aureus; [5]): 0 log CFU
- Colony counts, 1 × 10−5 dilution (S. aureus; [6]): 0 log CFU
- Colony counts, 1 × 10−6 dilution (S. aureus; [6]): 0 log CFU
- Colony counts, 1 × 10−7 dilution (S. aureus; [6]): 0 log CFU
- Colony counts, 1 × 10−2 dilution (S. aureus; [7]): 0 log CFU
- Colony counts, 1 × 10−3 dilution (S. aureus; [7]): 0 log CFU
- Colony counts, 1 × 10−4 dilution (S. aureus; [7]): 0 log CFU
- Colony counts, 1 × 10−5 dilution (S. aureus; [7]): 0 log CFU
- Colony counts, 1 × 10−6 dilution (S. aureus; [7]): 0 log CFU
- Colony counts, 1 × 10−7 dilution (S. aureus; [7]): 0 log CFU
- Colony counts, 0 (no dilution) (S. aureus; [8]): 0 log CFU
- Colony counts, 1 × 10−1 dilution (S. aureus; [8]): 0 log CFU
- Colony counts, 1 × 10−2 dilution (S. aureus; [8]): 0 log CFU
- Colony counts, 1 × 10−3 dilution (S. aureus; [8]): 0 log CFU
- Colony counts, 1 × 10−4 dilution (S. aureus; [8]): 0 log CFU
- Colony counts, 1 × 10−5 dilution (S. aureus; [8]): 0 log CFU
- Colony counts, 1 × 10−6 dilution (S. aureus; [8]): 0 log CFU
- Colony counts, 1 × 10−7 dilution (S. aureus; [8]): 0 log CFU
- Colony counts, 0 (no dilution) (S. aureus; [9]): TNTC
- Colony counts, 1 × 10−1 dilution (S. aureus; [9]): TNTC
- Colony counts, 1 × 10−2 dilution (S. aureus; [9]): TNTC
- Colony counts, 0 (no dilution) (S. aureus; [10]): 0 log CFU
- Colony counts, 1 × 10−1 dilution (S. aureus; [10]): 0 log CFU
- Colony counts, 1 × 10−2 dilution (S. aureus; [10]): 0 log CFU
- Colony counts, 1 × 10−3 dilution (S. aureus; [10]): 0 log CFU
- Colony counts, 1 × 10−4 dilution (S. aureus; [10]): 0 log CFU
- Colony counts, 1 × 10−5 dilution (S. aureus; [10]): 0 log CFU
- Colony counts, 1 × 10−6 dilution (S. aureus; [10]): 0 log CFU
- Colony counts, 1 × 10−7 dilution (S. aureus; [10]): 0 log CFU
- Colony counts, 0 (no dilution) (S. aureus; [11]): 0 log CFU
- Colony counts, 1 × 10−1 dilution (S. aureus; [11]): 0 log CFU
- Colony counts, 1 × 10−2 dilution (S. aureus; [11]): 0 log CFU
- Colony counts, 1 × 10−3 dilution (S. aureus; [11]): 0 log CFU
- Colony counts, 1 × 10−4 dilution (S. aureus; [11]): 0 log CFU
- Colony counts, 1 × 10−5 dilution (S. aureus; [11]): 0 log CFU
- Colony counts, 1 × 10−6 dilution (S. aureus; [11]): 0 log CFU
- Colony counts, 1 × 10−7 dilution (S. aureus; [11]): 0 log CFU
- Colony counts, 0 (no dilution) (S. aureus; [12]): 0 log CFU
- Colony counts, 1 × 10−1 dilution (S. aureus; [12]): 0 log CFU
- Colony counts, 1 × 10−2 dilution (S. aureus; [12]): 0 log CFU
- Colony counts, 1 × 10−3 dilution (S. aureus; [12]): 0 log CFU
- Colony counts, 1 × 10−4 dilution (S. aureus; [12]): 0 log CFU
- Colony counts, 1 × 10−5 dilution (S. aureus; [12]): 0 log CFU
- Colony counts, 1 × 10−6 dilution (S. aureus; [12]): 0 log CFU
- Colony counts, 1 × 10−7 dilution (S. aureus; [12]): 0 log CFU
- Colony counts, 0 (no dilution) (S. aureus; [13]): 0 log CFU
- Colony counts, 1 × 10−1 dilution (S. aureus; [13]): 0 log CFU
- Colony counts, 1 × 10−2 dilution (S. aureus; [13]): 0 log CFU
- Colony counts, 1 × 10−3 dilution (S. aureus; [13]): 0 log CFU
- Colony counts, 1 × 10−4 dilution (S. aureus; [13]): 0 log CFU
- Colony counts, 1 × 10−5 dilution (S. aureus; [13]): 0 log CFU
- Colony counts, 1 × 10−6 dilution (S. aureus; [13]): 0 log CFU
- Colony counts, 1 × 10−7 dilution (S. aureus; [13]): 0 log CFU
- Colony counts, 0 (no dilution) (S. aureus; [14]): 0 log CFU
- Colony counts, 1 × 10−1 dilution (S. aureus; [14]): 0 log CFU
- Colony counts, 1 × 10−2 dilution (S. aureus; [14]): 0 log CFU
- Colony counts, 1 × 10−3 dilution (S. aureus; [14]): 0 log CFU
- Colony counts, 1 × 10−4 dilution (S. aureus; [14]): 0 log CFU
- Colony counts, 0 (no dilution) (S. aureus; [15]): 0 log CFU
- Colony counts, 1 × 10−1 dilution (S. aureus; [15]): 0 log CFU
- Colony counts, 1 × 10−2 dilution (S. aureus; [15]): 0 log CFU
- Colony counts, 1 × 10−3 dilution (S. aureus; [15]): 0 log CFU
- Colony counts, 1 × 10−4 dilution (S. aureus; [15]): 0 log CFU
- Colony counts, 1 × 10−5 dilution (S. aureus; [15]): 0 log CFU
- Colony counts, 1 × 10−6 dilution (S. aureus; [15]): 0 log CFU
- Colony counts, 1 × 10−7 dilution (S. aureus; [15]): 0 log CFU
- Colony counts, 0 (no dilution) (S. aureus; [16]): TNTC
- Colony counts, 1 × 10−1 dilution (S. aureus; [16]): TNTC
- Colony counts, 1 × 10−2 dilution (S. aureus; [16]): TNTC
- Colony counts, 1 × 10−3 dilution (S. aureus; [16]): TNTC
- Reduction of bioburden (summary of Table 1) (S. aureus; pressures as low as about 0.15 ATM (2.2 psi), exposure times of about 105 minutes): total kill
- % Viability (cells; control = 100): 44.7% and 44.2% and 39.9%
- Cell viability (cells; summary of Table 2): 40%-50%
